Reference: patent publication US20220202899A1, “COMPOSITION FOR PREVENTION OR TREATMENT OF HAIR LOSS INCLUDING HAPLN1” (HAPLNSCIENCE INC., priority 2019, published 2022)

Assays:
[1] = tested on: TβRII; assay: TβRII protein in human hair germinal matrix cells deficient in endogenous HA (4-MU); format: cell-based; conditions: 4-MU-treated cells; HAPLN1 25 ng/mL; TGF-β2 2 ng/mL
Procedure: (§1) 4-MU (4-methylumbelliferone) is an inhibitor of HA-producing hyaluronan synthase 2 (HAS2), which produces HA. In order to confirm the effect of HA produced in cells, HA production in cells was inhibited using 4-MU.
(§2) The human hair germinal matrix cells, in which the endogenous HA was inhibited by treating 4-MU, were dispensed into a poly-D-lysine 6-well plate at a concentration of 5.0×10^4 per well and cultured for 24 hours. After 24 hours, the medium was removed and replaced with a new serum-free medium. HAPLN1 was treated with 25 ng/mL, and after 1 hour, TGF-β2 (2 ng/mL) was treated. After 23 hours, cells were collected, a lysis buffer (25 mM Tris-HCl, 1 mM EDTA, 0.1% Triton-X100, phosphatase inhibitor, and protease inhibitor) was added, and all the cells were broken through sonication. HAS2 and TβRII in the sample were measured using Western blotting. The optical density of each of HAS2 and TβRII was compared to that of GAPDH using a densitometer.

[2] = tested on: HAS2; assay: HAS2 protein in human hair germinal matrix cells deficient in endogenous HA (4-MU); format: cell-based; conditions: 4-MU-treated cells; HAPLN1 25 ng/mL; TGF-β2 2 ng/mL
Procedure: as §1, §2

SMILES: Cc1cc(=O)oc2cc(O)ccc12 [4-MU, 4-methylumbelliferone, reference compound]
- TβRII level [1]: decreased
- HAS2 level [2]: decreased
